# According to patent publication US9493455B2, “Azaindole derivatives as inhibitors of protein kinases” (ORIBASE PHARMA, priority 2012, dated 2016):
# Key:
# Test in all cases: In vitro kinase assay (Z′-LYTE)
# Format in all cases: biochemical
# ABL E255K = biological target: T1, ABL E255K (Homo sapiens, UniProt P00519, E255K); details: read-out: percent inhibition of the kinase compared to the control
# T1 construct: purchased Invitrogen
# Procedure, shortened: (§1)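 Z′-LYTE FRET assay: kinase phosphorylation of a dual-fluorophore peptide protects it from protease cleavage, and the donor/acceptor emission ratio after 400 nm excitation tracks progress. Compounds were tested at 100 nM, or at 10 μM against ABL T315I, in 1% DMSO final, with ATP at apparent Km.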
# ABL G250E = biological target: T2, ABL G250E (Homo sapiens, UniProt P00519, G250E); details: read-out: percent inhibition of the kinase compared to the control
# T2 construct: purchased Invitrogen
# Procedure, shortened: as §1
# ABL T315I = biological target: T3, ABL T315I (Homo sapiens, UniProt P00519, T315I); details: read-out: % of inhibition of the kinase compared to the control
# T3 construct: purchased Invitrogen
# Procedure, shortened: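 Single-point inhibition at 100 nM per compound (10 μM for ABL T315I), 1% DMSO final. Kinase buffer: 50 mM HEPES pH 7.5, 0.01% BRIJ-35, 10 mM MgCl2, 1 mM EGTA; ATP at previously determined apparent Km. Readout by FRET emission ratio (Z′-LYTE).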
# ABL2 = biological target: T4, ABL2 (Homo sapiens, UniProt P42684); details: read-out: percent inhibition of the kinase compared to the control
# T4 construct: purchased Invitrogen
# Procedure, shortened: as §1
# BRAF = biological target: T5, BRAF (Homo sapiens, UniProt P15056); details: compound 100 nM; ATP 100 μM; read-out: % of inhibition of the kinase compared to the control
# T5 construct: purchased Invitrogen
# Procedure, shortened: as §1
# BRAF V600E = biological target: T6, BRAF V600E (Homo sapiens, UniProt P15056, V600E); details: read-out: percent inhibition of the kinase compared to the control
# T6 construct: purchased Invitrogen
# Procedure, shortened: as §1
# BTK = biological target: T7, BTK (Homo sapiens, UniProt Q06187); details: read-out: percent inhibition of the kinase compared to the control
# T7 construct: purchased Invitrogen
# Procedure, shortened: as §1
# CSK = biological target: T8, CSK (Homo sapiens, UniProt P41240); details: read-out: percent inhibition of the kinase compared to the control
# T8 construct: purchased Invitrogen
# Procedure, shortened: as §1
# EGFR (ErbB1) = biological target: T9, EGFR (ErbB1) (Homo sapiens, UniProt P00533); details: read-out: % of inhibition of the kinase compared to the control
# T9 construct: purchased Invitrogen
# Procedure, shortened: as §1
# EPHA1 = biological target: T10, EPHA1 (Homo sapiens, UniProt P21709); details: read-out: percent inhibition of the kinase compared to the control
# T10 construct: purchased Invitrogen
# T10 sequence (P21709 26-976): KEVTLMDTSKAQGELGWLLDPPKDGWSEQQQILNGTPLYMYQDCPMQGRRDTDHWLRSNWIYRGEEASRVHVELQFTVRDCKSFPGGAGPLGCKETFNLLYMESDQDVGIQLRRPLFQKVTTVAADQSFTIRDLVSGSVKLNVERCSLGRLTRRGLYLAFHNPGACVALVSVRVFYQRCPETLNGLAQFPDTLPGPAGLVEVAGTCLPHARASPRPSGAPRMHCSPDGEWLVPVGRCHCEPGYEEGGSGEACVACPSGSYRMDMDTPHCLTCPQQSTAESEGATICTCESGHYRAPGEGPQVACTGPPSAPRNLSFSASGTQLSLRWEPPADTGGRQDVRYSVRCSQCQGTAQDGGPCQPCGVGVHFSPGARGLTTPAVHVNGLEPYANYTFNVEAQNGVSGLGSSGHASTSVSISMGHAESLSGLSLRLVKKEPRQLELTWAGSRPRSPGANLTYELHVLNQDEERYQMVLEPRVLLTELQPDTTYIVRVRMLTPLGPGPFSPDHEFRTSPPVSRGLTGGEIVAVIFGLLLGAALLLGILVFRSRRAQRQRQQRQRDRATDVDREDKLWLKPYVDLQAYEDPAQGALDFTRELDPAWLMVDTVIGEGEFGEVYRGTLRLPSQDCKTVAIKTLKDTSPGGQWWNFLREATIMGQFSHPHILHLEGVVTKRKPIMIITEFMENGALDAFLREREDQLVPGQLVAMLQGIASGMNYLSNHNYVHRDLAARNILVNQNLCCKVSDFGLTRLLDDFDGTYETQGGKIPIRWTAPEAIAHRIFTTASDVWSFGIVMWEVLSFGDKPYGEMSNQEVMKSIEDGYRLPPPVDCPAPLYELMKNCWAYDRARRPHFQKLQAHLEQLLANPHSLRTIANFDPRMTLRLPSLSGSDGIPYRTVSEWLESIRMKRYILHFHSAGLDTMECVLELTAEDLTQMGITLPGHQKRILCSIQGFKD
# Procedure, shortened: as §1
# EPHA2 = biological target: T11, EPHA2 (Homo sapiens, UniProt P29317); details: read-out: percent inhibition of the kinase compared to the control
# T11 construct: purchased Invitrogen
# Procedure, shortened: as §1
# EPHA4 = biological target: T12, EPHA4 (Homo sapiens, UniProt P54764); details: read-out: percent inhibition of the kinase compared to the control
# T12 construct: purchased Invitrogen
# Procedure, shortened: as §1
# EPHB2 = biological target: T13, EPHB2 (Homo sapiens, UniProt P29323); details: read-out: percent inhibition of the kinase compared to the control
# T13 construct: purchased Invitrogen
# Procedure, shortened: as §1
# EPHB4 = biological target: T14, EPHB4 (Homo sapiens, UniProt P54760); details: read-out: percent inhibition of the kinase compared to the control
# T14 construct: purchased Invitrogen
# Procedure, shortened: as §1
# ERBB4 = biological target: T15, ERBB4 (Homo sapiens, UniProt Q15303); details: read-out: percent inhibition of the kinase compared to the control
# T15 construct: purchased Invitrogen
# Procedure, shortened: as §1
# ERK2 = biological target: T16, ERK2 (Homo sapiens, UniProt P28482); details: read-out: percent inhibition of the kinase compared to the control
# T16 construct: purchased Invitrogen
# T16 sequence (P28482 whole entry): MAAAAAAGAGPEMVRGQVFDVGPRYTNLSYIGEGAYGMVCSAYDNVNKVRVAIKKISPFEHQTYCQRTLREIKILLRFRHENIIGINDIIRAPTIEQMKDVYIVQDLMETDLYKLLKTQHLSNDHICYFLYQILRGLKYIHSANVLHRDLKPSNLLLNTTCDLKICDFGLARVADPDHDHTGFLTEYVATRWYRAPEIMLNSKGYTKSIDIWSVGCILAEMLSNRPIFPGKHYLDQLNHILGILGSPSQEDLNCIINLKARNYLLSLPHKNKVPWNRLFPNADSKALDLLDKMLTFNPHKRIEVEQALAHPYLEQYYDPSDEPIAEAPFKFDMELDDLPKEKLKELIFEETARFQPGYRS
# Procedure, shortened: as §1
# FES = biological target: T17, FES (Homo sapiens, UniProt P07332); details: read-out: percent inhibition of the kinase compared to the control
# T17 construct: purchased Invitrogen
# T17 sequence (P07332 whole entry): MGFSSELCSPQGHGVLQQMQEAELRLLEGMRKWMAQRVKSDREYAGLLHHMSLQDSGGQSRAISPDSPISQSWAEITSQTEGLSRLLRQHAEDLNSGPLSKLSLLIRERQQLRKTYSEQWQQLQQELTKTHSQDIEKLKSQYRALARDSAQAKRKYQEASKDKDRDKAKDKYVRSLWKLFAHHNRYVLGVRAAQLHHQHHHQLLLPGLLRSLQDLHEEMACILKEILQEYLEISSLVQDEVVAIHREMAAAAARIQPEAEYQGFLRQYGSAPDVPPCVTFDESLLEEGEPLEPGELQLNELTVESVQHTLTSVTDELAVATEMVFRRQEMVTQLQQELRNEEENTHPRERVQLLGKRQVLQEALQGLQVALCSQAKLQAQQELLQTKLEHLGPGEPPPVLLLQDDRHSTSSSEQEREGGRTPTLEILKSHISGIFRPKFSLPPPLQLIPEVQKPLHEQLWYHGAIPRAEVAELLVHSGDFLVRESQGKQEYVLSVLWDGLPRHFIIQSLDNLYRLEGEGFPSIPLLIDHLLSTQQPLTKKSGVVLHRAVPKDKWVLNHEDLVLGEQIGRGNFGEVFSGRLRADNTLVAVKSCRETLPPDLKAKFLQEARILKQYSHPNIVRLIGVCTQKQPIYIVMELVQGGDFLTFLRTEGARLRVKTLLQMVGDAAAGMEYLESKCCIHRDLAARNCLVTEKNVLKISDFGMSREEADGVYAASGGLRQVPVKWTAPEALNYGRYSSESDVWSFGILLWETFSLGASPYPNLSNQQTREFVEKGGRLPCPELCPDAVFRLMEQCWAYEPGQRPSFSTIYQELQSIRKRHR
# Procedure, shortened: as §1
# FGFR1 = biological target: T18, FGFR1 (Homo sapiens, UniProt P11362); details: read-out: % of inhibition of the kinase compared to the control
# T18 construct: purchased Invitrogen
# Procedure, shortened: as §1
# FLT3 = biological target: T19, FLT3 (Homo sapiens, UniProt P36888); details: read-out: percent inhibition of the kinase compared to the control
# T19 construct: purchased Invitrogen
# Procedure, shortened: as §1
# FRK = biological target: T20, FRK (Homo sapiens, UniProt P42685); details: read-out: percent inhibition of the kinase compared to the control
# T20 construct: purchased Invitrogen
# T20 sequence (P42685 whole entry): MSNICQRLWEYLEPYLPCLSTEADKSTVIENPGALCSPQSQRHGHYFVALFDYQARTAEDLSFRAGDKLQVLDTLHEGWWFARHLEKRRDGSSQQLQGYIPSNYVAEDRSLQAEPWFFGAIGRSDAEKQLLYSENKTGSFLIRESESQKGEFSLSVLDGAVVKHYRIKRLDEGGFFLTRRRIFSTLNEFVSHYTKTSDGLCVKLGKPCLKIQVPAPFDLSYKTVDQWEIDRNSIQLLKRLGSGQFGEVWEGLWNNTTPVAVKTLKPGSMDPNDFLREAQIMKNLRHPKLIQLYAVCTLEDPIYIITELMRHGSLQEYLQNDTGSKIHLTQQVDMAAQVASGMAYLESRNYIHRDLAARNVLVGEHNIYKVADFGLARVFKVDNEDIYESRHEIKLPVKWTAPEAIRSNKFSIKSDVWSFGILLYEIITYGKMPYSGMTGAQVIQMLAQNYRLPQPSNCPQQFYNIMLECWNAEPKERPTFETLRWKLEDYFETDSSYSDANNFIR
# Procedure, shortened: as §1
# FYN = biological target: T21, FYN (Homo sapiens, UniProt P06241); details: read-out: percent inhibition of the kinase compared to the control
# T21 construct: purchased Invitrogen
# T21 sequence (P06241 whole entry): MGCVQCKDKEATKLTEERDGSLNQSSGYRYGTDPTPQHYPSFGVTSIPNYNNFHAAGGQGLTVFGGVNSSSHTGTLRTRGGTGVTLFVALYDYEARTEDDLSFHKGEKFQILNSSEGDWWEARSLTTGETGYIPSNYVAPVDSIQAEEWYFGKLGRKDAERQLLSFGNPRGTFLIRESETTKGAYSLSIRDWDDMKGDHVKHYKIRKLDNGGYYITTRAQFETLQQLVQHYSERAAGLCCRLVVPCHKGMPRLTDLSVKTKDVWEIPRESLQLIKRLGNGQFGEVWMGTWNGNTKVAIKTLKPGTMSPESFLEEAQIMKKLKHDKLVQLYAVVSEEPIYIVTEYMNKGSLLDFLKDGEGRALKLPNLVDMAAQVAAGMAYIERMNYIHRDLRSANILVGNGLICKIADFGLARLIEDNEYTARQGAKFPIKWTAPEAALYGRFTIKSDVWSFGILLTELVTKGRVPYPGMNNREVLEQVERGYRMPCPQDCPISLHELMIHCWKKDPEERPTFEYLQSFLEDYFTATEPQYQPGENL
# Procedure, shortened: as §1
# HCK = biological target: T22, HCK (Homo sapiens, UniProt P08631); details: read-out: percent inhibition of the kinase compared to the control
# T22 construct: purchased Invitrogen
# Procedure, shortened: as §1
# HER2 = biological target: T23, HER2 (Homo sapiens, UniProt P04626); details: read-out: percent inhibition of the kinase compared to the control
# T23 construct: purchased Invitrogen
# T23 sequence (P04626 23-1255): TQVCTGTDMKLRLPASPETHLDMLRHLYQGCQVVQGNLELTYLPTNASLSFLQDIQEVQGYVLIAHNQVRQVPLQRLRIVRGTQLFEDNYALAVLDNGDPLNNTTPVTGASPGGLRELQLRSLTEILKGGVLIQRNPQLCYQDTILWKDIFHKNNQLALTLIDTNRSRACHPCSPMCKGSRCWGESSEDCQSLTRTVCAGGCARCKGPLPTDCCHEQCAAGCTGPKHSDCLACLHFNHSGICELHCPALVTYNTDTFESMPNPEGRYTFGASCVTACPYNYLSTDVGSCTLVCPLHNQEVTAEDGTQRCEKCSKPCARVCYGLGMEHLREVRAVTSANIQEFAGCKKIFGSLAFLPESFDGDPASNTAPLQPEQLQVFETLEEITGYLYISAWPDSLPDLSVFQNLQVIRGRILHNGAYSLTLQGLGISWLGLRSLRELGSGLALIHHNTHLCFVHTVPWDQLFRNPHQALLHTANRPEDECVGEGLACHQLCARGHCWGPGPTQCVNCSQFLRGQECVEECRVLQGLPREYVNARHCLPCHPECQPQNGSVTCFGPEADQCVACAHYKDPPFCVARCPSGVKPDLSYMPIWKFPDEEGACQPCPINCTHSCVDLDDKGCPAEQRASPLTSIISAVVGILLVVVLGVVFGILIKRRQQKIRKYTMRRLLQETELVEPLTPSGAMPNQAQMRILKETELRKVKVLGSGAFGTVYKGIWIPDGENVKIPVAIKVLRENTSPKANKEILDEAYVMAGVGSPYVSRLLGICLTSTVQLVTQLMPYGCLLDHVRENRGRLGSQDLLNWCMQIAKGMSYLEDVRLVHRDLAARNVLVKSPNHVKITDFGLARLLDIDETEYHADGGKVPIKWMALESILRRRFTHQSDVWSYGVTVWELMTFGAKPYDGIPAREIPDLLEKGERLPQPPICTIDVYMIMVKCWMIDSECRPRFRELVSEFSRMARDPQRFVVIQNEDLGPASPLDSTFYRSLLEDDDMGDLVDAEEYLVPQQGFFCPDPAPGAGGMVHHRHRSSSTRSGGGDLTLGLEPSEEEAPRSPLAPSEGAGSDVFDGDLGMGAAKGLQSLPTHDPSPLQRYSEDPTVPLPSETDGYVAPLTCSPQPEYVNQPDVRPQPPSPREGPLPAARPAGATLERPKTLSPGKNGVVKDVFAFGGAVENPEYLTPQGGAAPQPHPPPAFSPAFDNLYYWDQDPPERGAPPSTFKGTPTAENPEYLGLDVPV
# Procedure, shortened: as §1
# LYN A = biological target: T24, LYN A (Homo sapiens, UniProt P07948); details: read-out: percent inhibition of the kinase compared to the control
# T24 construct: purchased Invitrogen
# Procedure, shortened: as §1
# MAPK14 = biological target: T25, MAPK14 (Homo sapiens, UniProt Q16539); details: read-out: percent inhibition of the kinase compared to the control
# T25 construct: purchased Invitrogen
# Procedure, shortened: as §1
# PDGFRA (PDGFR alpha) = biological target: T26, PDGFRA (PDGFR alpha) (Homo sapiens, UniProt P16234); details: read-out: % of inhibition of the kinase compared to the control
# T26 construct: purchased Invitrogen
# Procedure, shortened: as §1
# PKC theta = biological target: T27, PKC theta (Homo sapiens, UniProt Q04759); details: read-out: percent inhibition of the kinase compared to the control
# T27 construct: purchased Invitrogen
# Procedure, shortened: as §1
# RET = biological target: T28, RET (Homo sapiens, UniProt P07949); details: read-out: percent inhibition of the kinase compared to the control
# T28 construct: purchased Invitrogen
# Procedure, shortened: as §1
# SRC = biological target: T29, SRC (Homo sapiens, UniProt P12931); details: read-out: % of inhibition of the kinase compared to the control
# T29 construct: purchased Invitrogen
# T29 sequence (P12931 whole entry): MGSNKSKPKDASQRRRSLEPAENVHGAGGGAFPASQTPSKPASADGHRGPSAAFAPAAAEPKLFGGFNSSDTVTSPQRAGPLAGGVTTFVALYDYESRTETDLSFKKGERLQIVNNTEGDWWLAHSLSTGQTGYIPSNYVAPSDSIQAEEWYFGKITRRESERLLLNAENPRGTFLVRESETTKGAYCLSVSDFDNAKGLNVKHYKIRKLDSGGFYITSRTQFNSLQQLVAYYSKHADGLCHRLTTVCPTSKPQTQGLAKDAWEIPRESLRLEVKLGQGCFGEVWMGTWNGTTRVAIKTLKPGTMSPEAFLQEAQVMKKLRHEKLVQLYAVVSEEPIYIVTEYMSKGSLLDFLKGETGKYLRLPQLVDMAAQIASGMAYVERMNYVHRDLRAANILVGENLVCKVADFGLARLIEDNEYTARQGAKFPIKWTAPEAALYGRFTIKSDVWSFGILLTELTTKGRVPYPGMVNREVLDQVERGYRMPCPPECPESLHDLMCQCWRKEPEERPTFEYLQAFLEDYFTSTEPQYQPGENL
# Procedure, shortened: as §1
# VEGFR1 = biological target: T30, VEGFR1 (Homo sapiens, UniProt P17948); details: read-out: % of inhibition of the kinase compared to the control
# T30 construct: purchased Invitrogen
# Procedure, shortened: as §1
# YES = biological target: T31, YES (Homo sapiens, UniProt P07947); details: read-out: percent inhibition of the kinase compared to the control
# T31 construct: purchased Invitrogen
# Procedure, shortened: as §1
structure (smiles),measurement,setting,value
COC(=O)c1cc2cc(NCc3cc(NC(=O)c4ccc(CN5CCN(C)CC5)c(C(F)(F)F)c4)ccc3C)cnc2[nH]1 [OR0512],inhibition at 0.1 µM,ABL E255K,> 50%
same,inhibition at 0.1 µM,ABL G250E,> 50%
same,inhibition at 10 µM,ABL T315I,≥ 50%
same,inhibition at 0.1 µM,ABL2,> 50%
same,inhibition at 0.1 µM,BRAF,≥ 50%
same,inhibition at 0.1 µM,BRAF V600E,> 50%
same,inhibition at 0.1 µM,BTK,> 50%
same,inhibition at 0.1 µM,CSK,> 50%
same,inhibition at 0.1 µM,EGFR (ErbB1),≥ 50%
same,inhibition at 0.1 µM,EPHA1,> 50%
same,inhibition at 0.1 µM,EPHA2,> 50%
same,inhibition at 0.1 µM,EPHA4,> 50%
same,inhibition at 0.1 µM,EPHB2,> 50%
same,inhibition at 0.1 µM,EPHB4,> 50%
same,inhibition at 0.1 µM,ERBB4,> 50%
same,inhibition at 0.1 µM,ERK2,> 50%
same,inhibition at 0.1 µM,FES,> 50%
same,inhibition at 0.1 µM,FGFR1,≥ 50%
same,inhibition at 0.1 µM,FLT3,> 50%
same,inhibition at 0.1 µM,FRK,> 50%
same,inhibition at 0.1 µM,FYN,> 50%
same,inhibition at 0.1 µM,HCK,> 50%
same,inhibition at 0.1 µM,HER2,> 50%
same,inhibition at 0.1 µM,LYN A,> 50%
same,inhibition at 0.1 µM,MAPK14,> 50%
same,inhibition at 0.1 µM,PDGFRA (PDGFR alpha),≥ 50%
same,inhibition at 0.1 µM,PKC theta,> 50%
same,inhibition at 0.1 µM,RET,> 50%
same,inhibition at 0.1 µM,SRC,≥ 50%
same,inhibition at 0.1 µM,VEGFR1,< 50%
same,inhibition at 0.1 µM,YES,> 50%
